Results as given in patent publication US9115385B2, “Methods and compositions for topoisomerase I modulated tumor suppression” (RG BIOPHARMA, LLC, priority 2006, dated 2015).

Legend:
[1] = tested on: topo I phosphoserine 506 epitope; assay: Western of phosphoserine 506 epitope of topo I in treated cells; assay type: cell-based, human; conditions: H358 cells treated as in FIG. 13A
topoisomerase I [2] = assay: topoisomerase I plasmid relaxation assay with nuclear extracts of treated cells; assay type: cell-based, human; conditions: H358 cells, 72 hours after treatment, 0.75 μg lysate per reaction
Experimental: Topoisomerase I Assays: Assays were carried out using the Topoisomerase I Assay Kit (Topogen, Florida), according to the instructions provided with the kit and using the high salt nuclear extracts prepared as described above. […] The reaction was stopped by adding stop loading dye supplied in the kit and electrophoresed on a 1% agarose/TAE (10 mM TRIS-acetate/1 mM EDTA) gel until the dye front had reached the bottom of the gel. The gel was then stained for 20 minutes in 0.5 μg/mL ethidium bromide, destained in deionized water for 30 minutes, and electrophoresed for an additional hour to enhance band visibility. The gel was photographed and band intensities were analyzed digitally using a Kodak digital camera and analysis software. Some assays were carried out with alkaline phosphatase-treated extracts, prepared as described below, or in the presence of ARF or ARF1β thioredoxin fusion proteins (3, 9, 27 ng), prepared as described above (see pull-down assays).

PKC = conditions: cited from earlier work
cdk1 = cdk1 (Homo sapiens, UniProt P06493); conditions: cited from earlier work
[3] = tested on: topo I serine phosphorylation; assay: topo I immunoprecipitation followed by phosphoserine Western in treated cells; conditions: H358 cells, digital quantitation of band intensities
H358 cells = assay: cell viability assay with camptothecin, H358; assay type: cell-based, human
Experimental: (§1) Control cells received no pretreatment. […] CK2 activator treatment was for the duration of the assay. Cell viability was scored 3 days post-start of camptothecin treatment.
(§2) Viability assays were performed 24 hours post-vector treatment by exposing cells for 24 hours to increasing doses of camptothecin (a topoisomerase I inhibitor) in triplicate in a 96-well viability assay, and assaying them for viability 5 days post-start of vector treatment (FIG. 5B). For each growth curve, cell viabilities were normalized to the viability of cells treated with vector only (no camptothecin), to enable a direct visualization of the sensitization effect.
(§3) Studies of a large panel of cell lines have shown that cell lines with overexpressed CK2 (FIGS. 11B1-B3 and 11C1-C3) display hyper serine phosphorylation of topo I (FIG. 11D) that correlates with sensitivity to camptothecin (FIG. 11A). […] Triplicate wells were then treated with the indicated doses of camptothecin for 18 hours, and monitored for viability 3 days post-start of treatment. […] Referring to FIGS. 11B1-B3, PKC (B1), cdk1 (B2), and CK2 (B3) levels in cancer cell lines: Cell lysates were prepared from the indicated cancer cell lines and assayed for enzymatic activities, or evaluated by Western analysis for total PKC, cdk1, or CK2 protein levels. […] Numbers below Western blot are digital readings of ser-P band intensities relative to H358.

HT29 cells = assay: cell viability assay with camptothecin, HT29; assay type: cell-based, human; conditions: viability 3 days after treatment
Text: FIG. 7 is a series of graphs showing the correlation of serine phosphorylation, ARF/topoisomerase I complex formation and camptothecin sensitivity. FIGS. 7A-C show the relative amounts of (A) serine phosphorylation of topoisomerase I, (B) total topoisomerase I, and (C) ARF-topoisomerase I complex following topoisomerase I immunoprecipitation in the indicated cell types. FIG. 7D is a graph showing the viability of the indicated cell types 3 days after treatment with camptothecin.
as §3, with “Referring” for “Numbers below Western blot are digital readings of ser-P band intensities relative”, “FIGS. 11C1-C3 PKC (C1), cdk1 (C2), and CK2 (C3) levels in normal cell lines, compared to H358 and H23: Cell lysates were prepared from the indicated cell lines and evaluated as before. […]” for “H358.”

H23 cells = assay: cell viability assay with camptothecin, H23; assay type: cell-based, human
Experimental: as §1, §2
Studies of a large panel of cell lines have shown that cell lines with overexpressed CK2 (FIGS. 11B1-B3 and 11C1-C3) display hyper serine phosphorylation of topo I (FIG. 11D) that correlates with sensitivity to camptothecin (FIG. 11A). […] Cells were plated at 2000 cells per well and allowed to attach. Triplicate wells were then treated with the indicated doses of camptothecin for 18 hours, and monitored for viability 3 days post-start of treatment. Viability is represented as a % of control, untreated, cell viability. Referring to FIGS. 11B1-B3, PKC (B1), cdk1 (B2), and CK2 (B3) levels in cancer cell lines: Cell lysates were prepared from the indicated cancer cell lines and assayed for enzymatic activities, or evaluated by Western analysis for total PKC, cdk1, or CK2 protein levels. Actin levels served as a control (same control for PKC, cdk1, and CK2). Referring to FIGS. 11C1-C3 PKC (C1), cdk1 (C2), and CK2 (C3) levels in normal cell lines, compared to H358 and H23: Cell lysates were prepared from the indicated cell lines and evaluated as before. Numbers below Western blots indicate digital reading of band intensities of PCK, cdk1, or CK2 Western blots, relative to H358. Referring to FIG. 11D, topo-I immunoprecipitation followed by topo-I Western (top row) or phosphoserine Western (bottom row). Numbers below Western blot are digital readings of ser-P band intensities relative to H358.

Hela cells = assay: cell viability assay with camptothecin, Hela; assay type: cell-based; conditions: compared with H23 and H358
Text: FIG. 8A is a graph showing the viability of the indicated cell types 3 days after treatment with camptothecin. FIG. 8B is an electrophoretic gel of a topoisomerase I immunoprecipitation followed by an ARF and topoisomerase I Western analysis. FIG. 8C is an electrophoretic gel of a topoisomerase I immunoprecipitation and a phosphoserine Western analysis. FIG. 8D is an ARF Western analysis. […] The sensitivity of Hela cells to topoisomerase I inhibitors is also intermediate to that of […] and H23 cells.
The assay in FIG. 8A was carried out as in FIG. 7D. ARF/topoisomerase I complex formation was examined using the co-immunoprecipitation assay described for FIGS. 3A and 3C. A reduced but detectable level of ARF/topoisomerase I complex formation in Hela cells was observed, compared to H358 cells (FIG. 8B). ARF/topoisomerase I complex formation in H23 cells was undetectable (FIG. 8B), confirming previous experiments (FIG. 1C).

topoisomerase I [4] = target: T1, topoisomerase I (Homo sapiens, UniProt P11387); assay: topoisomerase I plasmid relaxation assay, agent added to nuclear extracts in vitro; assay type: biochemical; conditions: for effect on H358 topoisomerase activity: 3, 9, 27 ng added to 0.06 μg H358 extract; for effect on H23 topoisomerase activity: 3, 9, 27 ng added to 0.6 μg H23 extract
T1 construct: endogenous in cells; host or cells: H358 and H23 cells
T1 sequence (P11387 2-765 limits assumed): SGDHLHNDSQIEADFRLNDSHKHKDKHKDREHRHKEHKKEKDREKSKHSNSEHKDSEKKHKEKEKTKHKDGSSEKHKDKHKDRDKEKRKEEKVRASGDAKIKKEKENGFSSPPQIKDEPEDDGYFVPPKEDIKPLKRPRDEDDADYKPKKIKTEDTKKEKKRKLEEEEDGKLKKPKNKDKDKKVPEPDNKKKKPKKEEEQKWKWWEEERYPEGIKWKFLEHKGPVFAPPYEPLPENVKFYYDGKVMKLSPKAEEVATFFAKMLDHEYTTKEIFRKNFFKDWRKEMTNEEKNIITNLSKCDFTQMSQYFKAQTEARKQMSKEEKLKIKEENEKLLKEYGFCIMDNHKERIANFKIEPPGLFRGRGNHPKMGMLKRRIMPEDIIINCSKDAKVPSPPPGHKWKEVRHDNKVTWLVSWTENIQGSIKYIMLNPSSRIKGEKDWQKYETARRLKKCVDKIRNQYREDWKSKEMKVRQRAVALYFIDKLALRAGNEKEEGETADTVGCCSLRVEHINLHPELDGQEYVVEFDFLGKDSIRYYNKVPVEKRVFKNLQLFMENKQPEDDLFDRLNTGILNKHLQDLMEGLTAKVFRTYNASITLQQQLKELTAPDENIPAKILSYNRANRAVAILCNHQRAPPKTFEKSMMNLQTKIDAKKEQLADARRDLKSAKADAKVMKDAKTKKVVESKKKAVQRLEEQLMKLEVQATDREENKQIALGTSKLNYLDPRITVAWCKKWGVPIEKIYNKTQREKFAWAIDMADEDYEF
Experimental: Similar assays were carried out using the amount of each respective nuclear extract that produced a 50% conversion of supercoiled to relaxed form (0.06 and 0.6 μg extract protein per reaction for H358 and H23, respectively), and added increasing amounts of purified thioredoxin-ARF (3, 9, 27 ng).
Topoisomerase I Assays: Assays were carried out using the Topoisomerase I Assay Kit (Topogen, Florida), according to the instructions provided with the kit and using the high salt nuclear extracts prepared as described above. Briefly, 0.125 μg supercoiled plasmid DNA was incubated with 0-1.3 μg of nuclear extract for 30 minutes at 37° C. The reaction was stopped by adding stop loading dye supplied in the kit and electrophoresed on a 1% agarose/TAE (10 mM TRIS-acetate/1 mM EDTA) gel until the dye front had reached the bottom of the gel. The gel was then stained for 20 minutes in 0.5 μg/mL ethidium bromide, destained in deionized water for 30 minutes, and electrophoresed for an additional hour to enhance band visibility. The gel was photographed and band intensities were analyzed digitally using a Kodak digital camera and analysis software. Some assays were carried out with alkaline phosphatase-treated extracts, prepared as described below, or in the presence of ARF or ARF1β thioredoxin fusion proteins (3, 9, 27 ng), prepared as described above (see pull-down assays).

[5] = tested on: ARF/topoisomerase I complex; assay: ARF binding / co-immunoprecipitation of topoisomerase I after in vitro enzyme treatment; set-up: species or system human
Text: (§4) The dephosphorylated topoisomerase I from H358 cells could no longer be activated by addition of increasing amounts of ARF fusion protein (FIG. 3B, lanes 7-9).

topoisomerase I [6] = target: T1, topoisomerase I; assay: phosphoserine Western of topoisomerase I after in vitro enzyme treatment; assay type: biochemical
Text: as §4

ARF = assay: Western analysis of ARF protein levels in treated H358 cells; assay type: cell-based, human; conditions: 72 hours post-siRNA
Text: FIG. 5B is a series of graphs showing H358 and PC-3 cell viabilities assayed 5 days post-vector treatment (adenoviral vector, moi 20 pfu/cell, or siRNA), and 4 days post treatment with increasing doses of camptothecin. Viability is expressed as a percent of no-camptothecin control for each vector or siRNA treatment. Results represent average of triplicate wells, with standard deviations indicated. Treatments: Adp14 (ARF full length ▪); Ad1β (ARF N-term ◯); siRNA control (▾); no vector (●); siRNA exon 2 (∇). […] Digital analyses of ARF levels are shown below ARF lanes. (lower panel) H358 cell viability assay following the indicated treatments. Viability was measured 3 days post-start of camptothecin treatment.
Adenoviral vectors were used to achieve ectopic overexpression of full-length ARF (Adp14) or ARF-N-terminal domain (Ad1β), and RNA interference to down-regulate endogenous expression of ARF. As shown by the Western analysis of H358 cells in FIG. 5A, ARF levels increased by some 3-fold, as determined by digital analysis of band intensities, by 48 hours post-treatment with Adp14 (moi, 20 pfu/cell, FIG. 5A, lane 1), relative to Ad1β-treated cells (FIG. 5A, lane 2) or untreated cells (FIG. 5A, lane 4). […]

[7] = purified recombinant human topoisomerase I

cdk1, sequence (P06493 whole entry, species assumed): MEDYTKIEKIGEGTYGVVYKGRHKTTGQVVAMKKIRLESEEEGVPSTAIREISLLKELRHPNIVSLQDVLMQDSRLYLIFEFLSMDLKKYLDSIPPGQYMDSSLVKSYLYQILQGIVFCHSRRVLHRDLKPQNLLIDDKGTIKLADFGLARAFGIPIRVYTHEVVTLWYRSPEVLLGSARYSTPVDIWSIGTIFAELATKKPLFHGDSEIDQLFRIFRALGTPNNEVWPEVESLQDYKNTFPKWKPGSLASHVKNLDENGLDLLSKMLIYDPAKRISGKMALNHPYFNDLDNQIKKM
cdk1, sequence (P14635 whole entry partner, species assumed): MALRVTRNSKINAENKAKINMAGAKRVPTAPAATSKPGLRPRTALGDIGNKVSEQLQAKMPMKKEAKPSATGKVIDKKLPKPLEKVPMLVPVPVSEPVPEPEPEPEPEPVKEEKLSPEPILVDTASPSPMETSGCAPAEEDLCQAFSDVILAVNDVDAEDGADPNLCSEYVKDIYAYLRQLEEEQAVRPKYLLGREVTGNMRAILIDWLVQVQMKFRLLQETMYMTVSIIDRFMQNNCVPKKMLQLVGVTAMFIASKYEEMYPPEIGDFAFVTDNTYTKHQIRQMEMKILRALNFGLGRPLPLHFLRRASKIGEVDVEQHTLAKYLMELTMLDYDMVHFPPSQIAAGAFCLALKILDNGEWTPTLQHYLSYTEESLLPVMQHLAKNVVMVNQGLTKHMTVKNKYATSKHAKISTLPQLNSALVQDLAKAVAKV

## Brc1c(Br)c(Br)c2[nH]nnc2c1Br [TBB, 4,5,6,7-tetrabromobenzotriazole]
[1]
  cellular levels of the phosphoserine 506 epitope: suppresses cellular levels of the phosphoserine epitope
Topoisomerase I [2]
  conversion of supercoiled plasmid to relaxed form by nuclear extract: essentially none is converted
PKC
  effect on PKC: minimal effects
cdk1
  effect on cdk1: minimal effects
[3]
  topo I serine phosphorylation, % of untreated H358 cells: about 10%
H358 cells; pretreatment then camptothecin 18 hours, 3-day viability
  change of cellular response to camptothecin: more resistant to camptothecin

## CC[C@@]1(O)C(=O)OCc2c1cc1n(c2=O)Cc2cc3ccccc3nc2-1 [camptothecin]
HT29 cells
  sensitivity to camptothecin compared with H358 and PC-3: more resistant
H23 cells
  response to camptothecin: greatly reduced response
H23 cells; viability 3 days after treatment
  sensitivity to camptothecin compared with H358 and PC-3: more resistant
Hela cells
  sensitivity to camptothecin: intermediate to that of H23 and H358

## Thioredoxin-ARF: purified recombinant human ARF-thioredoxin fusion protein, full length
Topoisomerase I [4]
  effect on H358 topoisomerase activity: enhanced the activity of H358 topoisomerase in a dose-dependent manner
  effect on H23 topoisomerase activity: no effect

## alkaline phosphatase
[5]; nuclear extracts
  co-immunoprecipitation of topoisomerase I with ARF / complex formation: failed to co-immunoprecipitate
[5]; [7]
  binding of recombinant ARF fusion protein by purified recombinant human topoisomerase I: abolished its ability to bind recombinant ARF fusion protein
Topoisomerase I [6]; H358 and H23 nuclear extracts
  topoisomerase I serine phosphorylation: eliminated serine phosphorylation
Topoisomerase I [6]; [7]
  serine phosphorylation of purified recombinant human topoisomerase I: abolished serine phosphorylation
Topoisomerase I [4]; H358 and H23 nuclear extracts treated with the enzyme
  topoisomerase I activity in vitro: abolished their topoisomerase I activity

## siRNA to exon 1β: siRNA to the exon 1β region of ARF (SEQ ID NO: 4 and 5) (chain 1 GGGUUUUCGUGGUUCACAUTT; chain 2 AUGUGAACCACGAAAACCCTC; chemistry not given here)
ARF
  ARF protein level relative to untreated cells: about 0.25
H358 cells; viability 5 days post-start of vector treatment
  sensitivity to camptothecin after exon 1β siRNA with or without Adp14: decreased sensitivity to camptothecin

B1: thioredoxin ARF-N-terminus: thioredoxin fusion of the N-terminal 64 amino acid residues of ARF, does not bind topoisomerase I (protein, UniProt Q8N726 1-64, looked up, fragment)
chain: MVRRFLVTLRIRRACGPPRVRVFVVHIPRLTGEWAAPGAPAAVALVLMLLRSQRLGQQPLPRRP
modifications: thioredoxin fusion
Topoisomerase I [4]
  effect on H358 topoisomerase activity: Neither H358 not H23 topoisomerase activities responded
  effect on H23 topoisomerase activity: Neither H358 not H23 topoisomerase activities responded
